From ChEMBL document CHEMBL1144543, “QSAR study of anticoccidial activity for diverse chemical compounds: prediction and experimental assay of trans-2-(2-nitrovinyl)furan” (2007)

Tests used:
Type in all cases: functional
Gallus gallus [1] = organism: Gallus gallus; experiment: Increase in weight of Eimeria tenella infected Chick at 2 ug/ml relative to control
Gallus gallus [2] = organism: Gallus gallus; experiment: Increase in weight of Eimeria tenella infected Chick at 8 ug/ml relative to control
Gallus gallus [3] = organism: Gallus gallus; experiment: Increase in weight of Eimeria tenella infected Chick at 4 ug/ml relative to control
Eimeria tenella [4] = experiment: Anticococcidal activity against Eimeria tenella in Chick assessed as reduction in lesion at 4 ug/ml relative to control; design: scale not given: the % may be the effect or the level left
Eimeria tenella [5] = experiment: Anticococcidal activity against Eimeria tenella in Chick assessed as reduction in lesion at 2 ug/ml relative to control; design: scale not given: the % may be the effect or the level left
Eimeria tenella [6] = experiment: Anticococcidal activity against Eimeria tenella in Chick assessed as reduction in lesion at 8 ug/ml relative to control; design: scale not given: the % may be the effect or the level left
Gallus gallus [7] = organism: Gallus gallus; experiment: Increase in weight of Eimeria tenella infected Chick at 125 ug/ml relative to control
Eimeria tenella [8] = experiment: Anticococcidal activity against Eimeria tenella in Chick assessed as reduction in lesion at 125 ug/ml relative to control; design: scale not given: the % may be the effect or the level left

| Structure (SMILES) | Activity (Gallus gallus [1]) [%] | Activity (Gallus gallus [2]) [%] | Activity (Gallus gallus [3]) [%] | Activity (Eimeria tenella [4]) [%] | Activity (Eimeria tenella [5]) [%] | Activity (Eimeria tenella [6]) [%] | Activity (Gallus gallus [7]) [%] | Activity (Eimeria tenella [8]) [%] |
| --- | --- | --- | --- | --- | --- | --- | --- | --- |
| O=[N+]([O-])/C=C/c1ccco1 | 80.08 | 83.86 | 86.78 | 67.14 | 58.57 | 72.86 | – | – |
| CCCc1ncc(C[n+]2ccccc2C)c(N)n1.Cl.[Cl-] [AMPROLIUM] | – | – | – | – | – | – | 75.19 | 60 |
